Series [1] is described as follows: Cytotoxicity against mouse Hepa-1c1c7 cells after 48 hrs. Format: cell-based. The following applies: read-out: LD50.
Series [2] addresses NAD(P)H dehydrogenase [quinone] 1 (Mus musculus) (UniProt Q64669). Put plainly: Induction of NQO1 activity in mouse Hepa-1c1c7 cells after 48 hrs by Prochaska method. It is filed as cell-based.
For series [3] the target is unchanged. Put plainly: Induction of NQO1 activity in mouse hepatoma cells. It is filed as cell-based.
A short description of series [4]: Antiinflammatory activity in mouse macrophages assessed as inhibition of IFN-gamma-induced nitric oxide production after 48 hrs by Griess method. It is filed as functional, cell-based. To be noted: Macrophage.

Some results are limits rather than exact numbers.

Sequence of NAD(P)H dehydrogenase [quinone] 1 (Mus musculus) (Q64669 whole entry): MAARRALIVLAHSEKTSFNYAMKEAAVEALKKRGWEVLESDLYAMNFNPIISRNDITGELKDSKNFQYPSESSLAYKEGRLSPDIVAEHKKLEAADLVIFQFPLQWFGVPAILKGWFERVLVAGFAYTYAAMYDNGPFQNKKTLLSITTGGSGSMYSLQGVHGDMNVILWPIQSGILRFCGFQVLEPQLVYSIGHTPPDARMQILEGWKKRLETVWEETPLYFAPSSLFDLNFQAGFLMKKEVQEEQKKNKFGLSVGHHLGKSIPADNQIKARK

Consider `CC[S+]([O-])C(=O)N(CCCC[S+](C)[O-])c1ccccc1` (stereo not given), for which the CC50 at 48 h in series [1] was above 200 µM. The molecule further displayed a CD in series [2] of 43 µM.
Turning to `CCCCC(=O)CCCCN=C=S`, the CD in series [3] was 2 µM.
On the same count and under the same terms, the same measure for `CSC(=O)CCCCN=C=S`: 2.8 µM; for `O=[N+]([O-])[C@H]1CC2CC1C[C@@H]2N=C=S` (stereo not given in full): 1.1 µM.
As for `CCCN(CCCC[S+](C)[O-])C(=O)[S+]([O-])CC` (stereo not given), in series [1], the CC50 at 48 h was above 200 µM. The same molecule yielded a CD in series [2] of 35 µM.
As to `CC1(C)CC[C@]2(C(=O)O)CC[C@]3(C)[C@H](C(=O)C=C4[C@@]5(C)C=CC(=O)C(C)(C)[C@@H]5CC[C@]43C)[C@@H]2C1`, in series [4], the 50% inhibitory concentration (IC50) (in general, the point on the concentration scale where inhibition reaches its midpoint) worked out at 170 nM.
Molecule `CS(=O)(=O)[C@@H]1CCC[C@@H](CN=C=S)C1` (relative stereo) returned a CD in series [3] of 0.5 µM.
Same read-out and setting: the figure for `CS(=O)(=O)[C@H]1CC2CC1C[C@@H]2N=C=S` (stereo not given in full) is 0.7 µM.
On the same count and under the same terms, the figure for `CS(=O)(=O)[C@H]1CC2CC1[C@H](N=C=S)C2` (relative stereo) is 0.2 µM; for `O[C@@H]1CC2CC1C[C@@H]2N=C=S` (stereo not given in full) it is 19 µM.
In turn, `COC(=O)[C@H]1CC2CC1[C@H](N=C=S)C2` (stereo not given in full) came in with a CD in series [3] of 1.6 µM.
On the same count and under the same terms, the figure for `COC(=O)CCCCN=C=S` is 2.8 µM.
Consider `CC[S+]([O-])C(=O)N(CCCC[S+](C)[O-])Cc1ccc(F)cc1F` (stereo not given), for which the CC50 at 48 h in series [1] was above 50 µM. The molecule also returned a CD in series [2] of 7.3 µM.
On the same counts, the results for `CC[S+]([O-])C(=O)N(C)CCCC[S+](C)[O-]` (stereo not given) are above 200 µM and 94 µM.
`CC(=O)[C@H]1CC2CC1[C@H](N=C=S)C2` (relative stereo) yielded a CD in series [3] of 0.3 µM.
Consider `CC[S+]([O-])C(=O)N(CCCC[S+](C)[O-])C1CC1` (stereo not given), for which, in series [1], the CC50 at 48 h is above 200 µM. Further, the CD in series [2] stood at 43 µM.
As to `CC[S+]([O-])C(=O)N(CCCC[S+](C)[O-])Cc1ccc(-c2ccccc2)cc1` (stereo not given), the CC50 at 48 h in series [1] is 16 µM. This molecule also returned a CD in series [2] of 2.8 µM.
For the molecule `N#C[C@H]1CC2CC1C[C@@H]2N=C=S` (stereo not given in full), the CD in series [3] turned out to be 0.6 µM.
Take `CC[S+]([O-])C(=O)N(CCCC[S+](C)[O-])Cc1ccc(C(C)(C)C)cc1` (stereo not given): the CC50 at 48 h in series [1] amounted to 32 µM. This molecule also displayed a CD in series [2] of 3.8 µM.
Take `CC1(C)CC[C@]2(C(=O)O)CC[C@]3(C)C(=CC[C@@H]4[C@@]5(C)C=CC(=O)C(C)(C)[C@@H]5CC[C@]43C)[C@@H]2C1`: in series [4], the IC50 was 7100 nM.
As for `COC(=O)[C@H]1CC2CC1C[C@@H]2N=C=S` (stereo not given in full), the CD in series [3] is 0.7 µM.
Still for that read-out and setting: the same measure for `CCCCCCN=C=S`: 15 µM; for `CC(=O)[C@H]1CC2CC1C[C@@H]2N=C=S` (stereo not given in full): 0.4 µM.
Still for that read-out and setting: the same measure for `CS(=O)(=O)[C@@H]1CCC[C@H](CN=C=S)C1` (relative stereo): 0.4 µM.
In the case of `CC[S+]([O-])C(=O)N(CCCC[S+](C)[O-])Cc1cccc2ccccc12` (stereo not given), in series [1], the CC50 at 48 h was above 50 µM. Besides, the CD in series [2] is 5.3 µM.
With `CC(=O)[C@@H]1CC2CC1[C@H](N=C=S)C2` (relative stereo), the CD in series [3] turned out to be 0.8 µM.
Still for that read-out and setting: the same measure for `CC(O)[C@H]1CC2CC1C[C@@H]2N=C=S` (stereo not given in full): 0.5 µM; for `CC(=O)CCCCN=C=S`: 0.2 µM; for `C[S@+]([O-])CCCCN=C=S`: 0.2 µM.
Consider `CC1(C)CC[C@]2(C(=O)O)CC[C@]3(C)C(=CC[C@H]4C3(C)CC[C@H]3C(C)(C)C(=O)C(O)=C[C@@]34C)[C@@H]2C1` (single isomer, unassigned), for which the IC50 in series [4] was found to be 37000 nM.
In series [3], `O=C(O)CCCCN=C=S` yielded a CD of 2.2 µM.
As for `CC[S+]([O-])C(=O)N(CCCC[S+](C)[O-])Cc1ccccc1` (stereo not given), the CC50 at 48 h in series [1] was above 200 µM. This molecule also displayed a CD in series [2] of 13 µM.
`CC1(C)CC[C@]2(C(=O)O)CC[C@]3(C)C(=CC[C@@H]4[C@@]5(C)CC[C@H](O)C(C)(C)[C@@H]5CC[C@]43C)[C@@H]2C1` [OLEANOLIC_ACID]: the half-maximal inhibitory concentration (IC50) in series [4] is above 40000 nM.
In the case of `CC[S+]([O-])C(=O)N(CCCC[S+](C)[O-])C1CCCCC1` (stereo not given), the CC50 at 48 h in series [1] is above 200 µM. For the same molecule, the CD in series [2] was 64 µM.
As to `CS(=O)(=O)[C@@H]1CC2CC1[C@H](N=C=S)C2` (relative stereo), the CD in series [3] stood at 1 µM.
Consider `CC1(C)CC[C@]2(C(=O)O)CC[C@]3(C)C(=CC(=O)[C@@H]4[C@@]5(C)C=CC(=O)C(C)(C)[C@@H]5CC[C@]43C)[C@@H]2C1`, for which the concentration for half-maximal inhibition (IC50) in series [4] turned out to be 1400 nM.
On the same count and under the same terms, the same measure for `CC1(C)CC[C@]2(C(=O)O)CC[C@]3(C)[C@H](C(=O)C=C4[C@@]5(C)C=C(C#N)C(=O)C(C)(C)[C@@H]5CC[C@]43C)[C@@H]2C1` [BARDOXOLONE]: 0.4 nM.
Turning to `CP(C)(=O)CCCCN=C=S`, the CD in series [3] was 0.4 µM.
In series [3], `N#CCCCCN=C=S` returned a CD of 2 µM.
The same measure, in the same setting: the same measure for `CS(=O)(=O)[C@H]1CC[C@@H](N=C=S)CC1`: 0.4 µM.

Values taken from ChEMBL document CHEMBL2429766, “Keap calm, and carry on covalently” (J Med Chem, 2013).
